Assay [1] deals with T1, Cathepsin S (Homo sapiens, UniProt P25774). The assay can be described thus: Inhibition of cathepsin S in human JY cells assessed as accumulation of invariant chain p10li after 24 hrs by Western blot analysis. Type of assay: cell-based. (A western blot detects proteins with antibodies after separation by electrophoresis.)
The target of assay [2] is T1, Cathepsin S. The assay can be described thus: Inhibition of human recombinant cathepsin S expressed in baculovirus expression sytem after 15 mins by FRET assay.

T1 sequence (P25774 whole entry): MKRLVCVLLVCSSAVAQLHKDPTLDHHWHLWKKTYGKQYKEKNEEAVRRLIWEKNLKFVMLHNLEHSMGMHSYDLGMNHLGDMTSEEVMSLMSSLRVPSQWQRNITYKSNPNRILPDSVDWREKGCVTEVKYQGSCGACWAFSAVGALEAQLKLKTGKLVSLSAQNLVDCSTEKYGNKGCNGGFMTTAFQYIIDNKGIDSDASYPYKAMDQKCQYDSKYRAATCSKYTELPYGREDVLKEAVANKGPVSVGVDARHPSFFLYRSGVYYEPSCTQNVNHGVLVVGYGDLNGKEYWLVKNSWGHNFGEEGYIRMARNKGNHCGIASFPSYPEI

For `CS(=O)(=O)N1CCc2c(c(-c3ccc(C(F)(F)F)c(SCCNC(=O)Cc4ccccc4)c3)nn2CC(O)CN2CCC(N3CCCC3=O)CC2)C1` (stereo unspecified), the IC50 (in general, the concentration needed to halve the response being measured) at Cathepsin S [1] is greater than 10000 nM.
As to `CS(=O)(=O)N1CCc2c(c(-c3ccc(C(F)(F)F)c(SCC(=O)N4CC[C@H](O)C4)c3)nn2CC(O)CN2CCC(c3ccccn3)CC2)C1` (stereo partly specified), the IC50 was determined as 30 nM at Cathepsin S [1] and 7 nM at Cathepsin S [2].
For `CS(=O)(=O)N1CCc2c(c(-c3ccc(C(F)(F)F)c(SCC(=O)N4CCCCC4)c3)nn2CC(O)CN2CCC(c3ccccn3)CC2)C1` (stereo unspecified), at Cathepsin S [1], the IC50 was found to be 1540 nM.
In the case of `CS(=O)(=O)N1CCc2c(c(-c3ccc(C(F)(F)F)c(SCC(=O)N4CCCC4)c3)nn2CCCN2CCC(C(=O)N3CCCC3)CC2)C1`, the IC50 on Cathepsin S [1] worked out at 280 nM; on Cathepsin S [2] it was 40 nM.
For `CS(=O)(=O)N1CCc2c(c(-c3ccc(C(F)(F)F)c(SCC(=O)NCc4ccccc4)c3)nn2CCCN2CCC(N3CCCC3=O)CC2)C1`, on Cathepsin S [1], the IC50 stood at 10000 nM.
On to `CN1CCN(C(=O)CSc2cc(-c3nn(CCCN4CCC(N5CCCC5=O)CC4)c4c3CN(S(C)(=O)=O)CC4)ccc2C(F)(F)F)CC1`, for which the values for the IC50 on Cathepsin S [1] and on Cathepsin S [2] were 110 nM and 740 nM, respectively.
With `CS(=O)(=O)N1CCc2c(c(-c3ccc(C(F)(F)F)c(SCC(=O)N4CCCCC4)c3)nn2CCCN2CCC(N3CCCC3=O)CC2)C1`, the IC50 worked out at 3920 nM at Cathepsin S [1] and 70 nM at Cathepsin S [2].
Taken in the same sequence, the figures for `CS(=O)(=O)N1CCc2c(c(-c3ccc(C(F)(F)F)c(SCC(=O)N4CCOCC4)c3)nn2CCCN2CCC(N3CCCC3=O)CC2)C1` were 450 nM and 20 nM.
With `CC1CCCN1C(=O)CSc1cc(-c2nn(CCCN3CCC(N4CCCC4=O)CC3)c3c2CN(S(C)(=O)=O)CC3)ccc1C(F)(F)F` (stereo unspecified), the IC50 on Cathepsin S [1] was found to be 6000 nM.
For the compound `CC1CCN(C(=O)CSc2cc(-c3nn(CCCN4CCC(N5CCCC5=O)CC4)c4c3CN(S(C)(=O)=O)CC4)ccc2C(F)(F)F)CC1`, the IC50 on Cathepsin S [1] turned out to be 8000 nM; at Cathepsin S [2] it was 210 nM.
For the compound `CS(=O)(=O)N1CCc2c(c(-c3ccc(C(F)(F)F)c(SCC(=O)N4CCC(CO)CC4)c3)nn2CCCN2CCC(N3CCCC3=O)CC2)C1`, the IC50 at Cathepsin S [1] came to 340 nM.
Still for that read-out and setting: under `CS(=O)(=O)N1CCc2c(c(-c3ccc(C(F)(F)F)c(SCC(=O)N4CCCC4)c3)nn2CCCN2CCC(N3CCCC3=O)CC2)C1` stands 1970 nM; under `CS(=O)(=O)N1CCc2c(c(-c3ccc(C(F)(F)F)c(SCCN4CCCCC4)c3)nn2CCCN2CCC(N3CCCC3=O)CC2)C1`, 40 nM.
In the case of `C[C@H]1CCCCN1CC(O)Cn1nc(-c2ccc(C(F)(F)F)c(SCC(=O)N3CCOCC3)c2)c2c1CCN(S(C)(=O)=O)C2` (mixture of isomers), the IC50 turned out to be 10000 nM on Cathepsin S [1] and 300 nM at Cathepsin S [2].
The like results for `CS(=O)(=O)N1CCc2c(c(-c3ccc(C(F)(F)F)c(SCC(=O)N4CC[C@@H](O)C4)c3)nn2CC(O)CN2CCC(c3ccccn3)CC2)C1` (mixture of isomers) were, in that order, 30 nM and 7 nM.
Turning to `CCN1CCc2c(c(-c3ccc(C(F)(F)F)c(SCC(=O)N4CCCC4)c3)nn2CC(O)CN2CCC(c3ccccn3)CC2)C1` (racemic), on Cathepsin S [2], the IC50 turned out to be 250 nM.
For `O=C(CSc1cc(-c2nn(CC(O)CN3CCC(c4ccccn4)CC3)c3c2CN(C(=O)CO)CC3)ccc1C(F)(F)F)N1CCOCC1` (racemic), at Cathepsin S [1], the IC50 was determined as 160 nM.
For the compound `O=C(CSc1cc(-c2nn(CC(O)CN3CCC(c4ccccn4)CC3)c3c2CNCC3)ccc1C(F)(F)F)N1CCOCC1` (racemic), the IC50 on Cathepsin S [1] was 1680 nM.
On to `CS(=O)(=O)N1CCc2c(c(-c3ccc(C(F)(F)F)c(SCC(=O)N4CCCC4)c3)nn2CC(O)CN2CCC(c3ccccn3)CC2)C1` (racemic), for which the IC50 at Cathepsin S [1] was found to be 470 nM; at Cathepsin S [2], 1 nM.
The like results for `CS(=O)(=O)N1CCc2c(c(-c3ccc(C(F)(F)F)c(SCC(=O)N4CCOCC4)c3)nn2CC(O)CN2CCC(c3ccccc3F)CC2)C1` (racemic) were, in that order, 3130 nM and 10 nM.
Regarding `COc1ccccc1C1CCN(CC(O)Cn2nc(-c3ccc(C(F)(F)F)c(SCC(=O)N4CCOCC4)c3)c3c2CCN(S(C)(=O)=O)C3)CC1` (racemic), the IC50 at Cathepsin S [1] stood at 190 nM.
The same measure, in the same setting: under `CS(=O)(=O)N1CCc2c(c(-c3ccc(C(F)(F)F)c(SCC(=O)N4CCOCC4)c3)nn2CC(O)CN2CCC(c3ccccn3)CC2)C1` (racemic) stands 380 nM.
The same measure, in the same setting: under `CS(=O)(=O)N1CCc2c(c(-c3ccc(C(F)(F)F)c(SCC(=O)N4CCC(O)C4)c3)nn2CCCN2CCC(N3CCCC3=O)CC2)C1` (racemic) stands 520 nM.
Still for that read-out and setting: under `CC(=O)N1CCc2c(c(-c3ccc(C(F)(F)F)c(SCC(=O)N4CCCC4)c3)nn2CC(O)CN2CCC(C(C)(C)O)CC2)C1` (racemic) stands 110 nM.
Turning to `CC(=O)N1CCc2c(c(-c3ccc(C(F)(F)F)c(SCC(=O)N4CCCC4)c3)nn2CC(O)CN2CCC(C)CC2)C1` (racemic), the values for the half-maximal inhibitory concentration (IC50) on Cathepsin S [1] and at Cathepsin S [2] were 80 nM and 180 nM, respectively.
In the case of `COc1ccccc1C1CCN(CC(O)Cn2nc(-c3ccc(C(F)(F)F)c(SCC(=O)N4CCCC4)c3)c3c2CCNC3)CC1` (racemic), the IC50 at Cathepsin S [1] was 120 nM.
Turning to `COc1ccccc1C1CCN(CC(O)Cn2nc(-c3ccc(C(F)(F)F)c(SCC(=O)N4CCOCC4)c3)c3c2CCNC3)CC1` (racemic), the IC50 on Cathepsin S [1] is 1850 nM; at Cathepsin S [2] it was 190 nM.
For `COc1ccccc1C1CCN(CC(O)Cn2nc(-c3ccc(C(F)(F)F)c(SCC(=O)N4CCOCC4)c3)c3c2CCN(C(C)=O)C3)CC1` (racemic), the IC50 at Cathepsin S [1] stood at 900 nM.
In the case of `COc1ccccc1C1CCN(CC(O)Cn2nc(-c3ccc(C(F)(F)F)c(SCC(=O)N4CCOCC4)c3)c3c2CCN(C(=O)CO)C3)CC1` (racemic), the IC50 at Cathepsin S [1] came out at 480 nM.
